From publication PMC11588247, “Antimicrobial and antioxidant activities of peptide derived from turmeric plant (Curcuma longa L)” (PLOS ONE, 2024)
Ends that are not written are not given here.

Assays:
[1] = test system: Staphylococcus epidermidis (ATCC 12228); assay: microbe, parasite or virus in culture; format: cell-based; settings: sample 100 μg/mL, 6 h at 37°C, MTT OD570 vs inoculated broth control
Text: (§1) Pathogenic microorganism composes of Escherichia coli (ATCC 25922), Staphylococcus aureus (ATCC 25923), Staphylococcus epidermidis (ATCC 12228), Bacillus subtilis (ATCC 6633), Bacillus cereus (ATCC 11778), Pseudomonas aeruginosa (ATCC 27853), Vibrio parahaemolyticus (ATCC 17802), Klebsiella pneumoniae (ATCC 27736), Acinetobacter baumannii (ATCC 19606), Enterobacter cloacae (ATCC 13047), Salmonella enterica (ATCC 13311), and Salmonella Typhi (ATCC 22842) were used in the experiments.
(§2) Bacteria were initially cultured on Tryptic Soy Agar (TSA) plates at 37°C for 12–16 hours. A single colony was transferred to Tryptic Soy Broth (TSB) and incubated at 37°C with gently agitation at 100 rpm, for an additional 12–16 hours. The bacterial concentration was adjusted to an optical density at 600 nm (OD600) of 0.05, corresponding to 4 x 10^7 CFU/mL, before being added to a 96-well plate (50 μL per well). Subsequently, 50 μL of protein hydrolysate or peptide was inoculated into each well at a final concentration of 100 μg/mL, and the mixture was incubated at 37°C with continuous shaking at 100 rpm for 6 hours. Wells with inoculated broth alone served as a negative control, while wells containing Ampicillin (100 μg/mL) served as a positive control. Following incubation, 25 μL of a 100 μg/mL MTT (3-(4,5-dimethylthiazol-2-yl)-2,5-diphenyltetrazolium bromide) solution was added to each well, thoroughly mixed, and incubated at room temperature for 4 hours. The optical density at 570 nm (OD570nm) was subsequently measured using a microplate reader (Synergy H1 Hybrid Multi-Mode Reader, Biotek, Winusky, VT, USA). The percentage of inhibition was calculated using the provided equation: [(OD570control–OD570test)/OD570control]×100 (1)

[2] = test system: Salmonella enterica (ATCC 13311); assay: microbe, parasite or virus in culture; format: cell-based; settings: sample 100 μg/mL, 6 h at 37°C, MTT OD570 vs inoculated broth control
Text: as §1, §2

[3] = test system: Acinetobacter baumannii (ATCC 19606); assay: microbe, parasite or virus in culture; format: cell-based; settings: sample 100 μg/mL, 6 h at 37°C, MTT OD570 vs inoculated broth control
Text: as §1, §2

[4] = test system: Staphylococcus aureus (ATCC 25923); assay: microbe, parasite or virus in culture; format: cell-based; settings: sample 100 μg/mL, 6 h at 37°C, MTT OD570 vs inoculated broth control
Text: as §1, §2

[5] = test system: Escherichia coli (ATCC 25922); assay: Antimicrobial activity assay (broth culture, MTT read-out); format: cell-based; settings: ATCC25922, sample 100 μg/mL, 6 h at 37°C, MTT OD570 vs inoculated broth control, read-out: Inhibitory Percentage (Means±SD), Escherichia coli ATCC 25922
Text: as §1, §2

[6] = test system: Enterobacter cloacae (ATCC 13047); assay: as above; format: cell-based; settings: ATCC13047, sample 100 μg/mL, 6 h at 37°C, MTT OD570 vs inoculated broth control, read-out: Inhibitory Percentage (Means±SD), Enterobacter cloacae ATCC 13047
Text: as §1, §2

[7] = test system: Klebsiella pneumoniae (ATCC 27736); assay: as above; format: cell-based; settings: ATCC27736, sample 100 μg/mL, 6 h at 37°C, MTT OD570 vs inoculated broth control, read-out: Inhibitory Percentage (Means±SD), Klebsiella pneumoniae ATCC 27736
Text: as §1, §2

[8] = test system: Bacillus cereus (ATCC 11778); assay: as above; format: cell-based; settings: ATCC11778, sample 100 μg/mL, 6 h at 37°C, MTT OD570 vs inoculated broth control, read-out: Inhibitory Percentage (Means±SD), Bacillus cereus ATCC 11778
Text: as §1, §2

[9] = test system: Salmonella Typhi (ATCC 22842); assay: as above; format: cell-based; settings: Salmonella enterica, 6 h, read-out: Inhibitory Percentage (Means±SD), Salmonella Typhi ATCC 22842
Text: as §1, §2

[10] = test system: Vibrio parahaemolyticus (ATCC 17802); assay: as above; format: cell-based; settings: ATCC17802, sample 100 μg/mL, 6 h at 37°C, MTT OD570 vs inoculated broth control, read-out: Inhibitory Percentage (Means±SD), Vibrio parahaemolyticus ATCC 17802
Text: as §1, §2

[11] = test system: Pseudomonas aeruginosa (ATCC 27853); assay: as above; format: cell-based; settings: ATCC27853, sample 100 μg/mL, 6 h at 37°C, MTT OD570 vs inoculated broth control, read-out: Inhibitory Percentage (Means±SD), Pseudomonas aeruginosa ATCC 27853
Text: as §1, §2

[12] = test system: Bacillus subtilis (ATCC 6633); assay: as above; format: cell-based; settings: ATCC6633, sample 100 μg/mL, 6 h at 37°C, MTT OD570 vs inoculated broth control, read-out: Inhibitory Percentage (Means±SD), Bacillus subtilis ATCC 6633
Text: as §1, §2

[13] = FRAP (ferric ion-reducing antioxidant power) assay; settings: 10 μL sample + 190 μL FRAP reagent (acetate pH 3.6, TPTZ, FeCl3), 30 min dark, absorbance 593 nm, ascorbic acid standard; hydrolysate at 100 μg/mL
Protocol: The ferric ion-reducing antioxidant power assay was analyzed according to the method by Rumpf et al. with minor modifications. Briefly, the FRAP reagent was prepared from 300 mM sodium acetate (pH 3.6) and 10 mM TPTZ (2,4,6-tris (2-pyridyl)-s-triazine) in 40 mM HCl and 20 mM ferric chloride at the ratio of 10:1:1, respectively. Then, a 10 μL aliquot of the sample or standard was mixed with 190 μL of the FRAP reagent before incubating in the dark for 30 minutes. The absorbance was measured at 593 nm using a microplate reader (Synergy H1 Hybrid Multi-Mode Reader, Biotek, Winusky, VT, USA). Ascorbic acid (Sigma-Aldrich, Singapore) was used as the standard. Results were expressed as micrograms of ascorbic acid equivalent per gram (μg AAE g^−1).

[14] = ABTS radical scavenging assay; settings: 10 μL sample + 190 μL ABTS solution, 5 min dark, absorbance 750 nm, ascorbic acid standard; hydrolysate at 100 μg/mL
Protocol: Radical scavenging antioxidant activity was determined according to the ABTS radical scavenging activity following the method described by Re et al. with slight modifications. Briefly, the solution of ABTS radical was prepared from the reaction between 7 mM ABTS (2,2-azino-bis (3-ethylbenzothiazoline-6-sulphonic acid) diammonium salt) and 2.45 mM ammonium persulphate. The resulting ABTS solution was diluted with distilled water to achieve an optical density of 0.7 at 750 nm. Then, a sample or standard of 10 μL was mixed with 190 μL of ABTS solution and incubated for 5 minutes in the dark. The absorbance was measured at 750 nm by a microplate reader (Synergy H1 Hybrid Multi-Mode Reader, Biotek, Winusky, VT, USA). Ascorbic acid was used as the standard.

[15] = DPPH radical scavenging assay; settings: 10 μL sample + 190 μL 0.1 mM DPPH, 30 min dark, room temperature, absorbance 517 nm, ascorbic acid standard; hydrolysate at 100 μg/mL
Protocol: The DPPH radical scavenging activity of the sample was evaluated following the protocol by Muangrod et al. with slight modifications. Briefly, 190 μL of 0.1 mM DPPH was mixed with 10 μL of the sample or standard ascorbic acid in each well and incubated at room temperature in the dark for 30 minutes. The absorbance of the mixture was measured at 517 nm using a microplate reader (Synergy H1 Hybrid Multi-Mode Reader, Biotek, Winusky, VT, USA). The percentage inhibition of DPPH radical scavenging activity was calculated using the following equation: %DPPHinhibition=[(Acontrol−Asample)/Acontrol]×100 (2) where A control means the absorbance of the control that contained all reagents except the test samples, and A sample means the absorbance of the mixture (sample and 0.1 mM DPPH). Ascorbic acid was used as the standard. Results were expressed as μg ascorbic acid equivalent (μg AAE g^−1).

CC1(C)S[C@@H]2[C@H](NC(=O)[C@H](N)c3ccccc3)C(=O)N2[C@H]1C(=O)O [Ampicillin]
inhibition at 100 µg/mL ([1]; Staphylococcus epidermidis, ATCC12228, read-out: Inhibitory Percentage (Means±SD), Staphylococcus epidermidis ATCC 12228): 7.42 ± 0.23%
inhibition at 100 µg/mL ([2]; Salmonella enterica, ATCC13311, read-out: Inhibitory Percentage (Means±SD), Salmonella enterica ATCC 13311): 84.6 ± 4.34%
inhibition at 100 µg/mL ([3]; Acinetobacter baumannii, ATCC19606, read-out: Inhibitory Percentage (Means±SD), Acinetobacter baumannii ATCC 19606): 42 ± 4.67%
inhibition at 100 µg/mL ([4]; Staphylococcus aureus, ATCC25923, read-out: Inhibitory Percentage (Means±SD), Staphylococcus aureus ATCC 25923): -2.72 ± 0.02%
inhibition at 100 µg/mL [5]: 82.1 ± 2.62%
inhibition at 100 µg/mL [6]: 15.6 ± 0.89%
inhibition at 100 µg/mL [7]: -19.1 ± 1.32%
inhibition at 100 µg/mL [8]: 35.9 ± 1.46%
inhibition at 100 µg/mL [9]: 8.6 ± 0.22%
inhibition at 100 µg/mL [10]: -45.8 ± 1.54%
inhibition at 100 µg/mL [11]: 16.3 ± 0.87%
inhibition at 100 µg/mL [12]: 96.5 ± 4.03%

ARLLLLKP [Cur-8]
FRAP (antioxidant activity ± SD) [13]: 1.05±0.01 μg AAE g^−1
ABTS radical-scavenging activity (antioxidant activity ± SD) [14]: 0.13±0.00 μg AAE g^−1
DPPH radical scavenging activity (antioxidant activity ± SD) [15]: 0.58±0.00 μg AAE g^−1

HAFRDAVTPLE [Cur-12]
FRAP (antioxidant activity ± SD) [13]: 1.04±0.01 μg AAE g^−1
ABTS radical-scavenging activity (antioxidant activity ± SD) [14]: 0.02±0.00 μg AAE g^−1
DPPH radical scavenging activity (antioxidant activity ± SD) [15]: 0.60±0.06 μg AAE g^−1

KLHLLILI [Cur-1]
FRAP (antioxidant activity ± SD) [13]: 1.05±0.01 μg AAE g^−1
Inhibitory Percentage (Means±SD), Staphylococcus epidermidis ATCC 12228 ([1]; listed as Cur-25): inhibited growth
Inhibitory Percentage (Means±SD), Salmonella enterica ATCC 13311 ([2]; listed as Cur-25): inhibited growth
Inhibitory Percentage (Means±SD), Acinetobacter baumannii ATCC 19606 ([3]; listed as Cur-25): inhibited growth
Inhibitory Percentage (Means±SD), Staphylococcus aureus ATCC 25923 ([4]; listed as Cur-25): inhibited growth
ABTS radical-scavenging activity (antioxidant activity ± SD) [14]: 0.22±0.00 μg AAE g^−1
DPPH radical scavenging activity (antioxidant activity ± SD) [15]: 0.63±0.04 μg AAE g^−1

LKKPVILL [Cur-11]
FRAP (antioxidant activity ± SD) [13]: 1.05±0.01 μg AAE g^−1
ABTS radical-scavenging activity (antioxidant activity ± SD) [14]: 0.17±0.01 μg AAE g^−1
DPPH radical scavenging activity (antioxidant activity ± SD) [15]: 0.68±0.02 μg AAE g^−1

LKKTLLLVNKADLLP [Cur-5]
FRAP (antioxidant activity ± SD) [13]: 1.04±0.00 μg AAE g^−1
ABTS radical-scavenging activity (antioxidant activity ± SD) [14]: 0.12±0.00 μg AAE g^−1
DPPH radical scavenging activity (antioxidant activity ± SD) [15]: 0.62±0.01 μg AAE g^−1

PKVKILIL [Cur-4]
FRAP (antioxidant activity ± SD) [13]: 1.08±0.09 μg AAE g^−1
ABTS radical-scavenging activity (antioxidant activity ± SD) [14]: 0.15±0.00 μg AAE g^−1
DPPH radical scavenging activity (antioxidant activity ± SD) [15]: 0.77±0.01 μg AAE g^−1

PLKLLLPL [Cur-7]
FRAP (antioxidant activity ± SD) [13]: 1.04±0.00 μg AAE g^−1
ABTS radical-scavenging activity (antioxidant activity ± SD) [14]: 0.15±0.00 μg AAE g^−1
DPPH radical scavenging activity (antioxidant activity ± SD) [15]: 0.74±0.02 μg AAE g^−1

PLLLKLIV [Cur-2]
FRAP (antioxidant activity ± SD) [13]: 1.05±0.01 μg AAE g^−1
Inhibitory Percentage (Means±SD), Staphylococcus epidermidis ATCC 12228 ([1]; listed as Cur-14): inhibited growth
Inhibitory Percentage (Means±SD), Salmonella enterica ATCC 13311 ([2]; listed as Cur-14): inhibited growth
Inhibitory Percentage (Means±SD), Acinetobacter baumannii ATCC 19606 ([3]; listed as Cur-14): inhibited growth
Inhibitory Percentage (Means±SD), Staphylococcus aureus ATCC 25923 ([4]; listed as Cur-14): inhibited growth
ABTS radical-scavenging activity (antioxidant activity ± SD) [14]: 0.13±0.00 μg AAE g^−1
DPPH radical scavenging activity (antioxidant activity ± SD) [15]: 0.75±0.03 μg AAE g^−1

QIILLLLKP [Cur-9]
FRAP (antioxidant activity ± SD) [13]: 1.04±0.02 μg AAE g^−1
ABTS radical-scavenging activity (antioxidant activity ± SD) [14]: 0.07±0.00 μg AAE g^−1
DPPH radical scavenging activity (antioxidant activity ± SD) [15]: 0.70±0.00 μg AAE g^−1

VHVLLLIL [Cur-10]
FRAP (antioxidant activity ± SD) [13]: 1.04±0.00 μg AAE g^−1
ABTS radical-scavenging activity (antioxidant activity ± SD) [14]: 0.30±0.01 μg AAE g^−1
DPPH radical scavenging activity (antioxidant activity ± SD) [15]: 0.75±0.04 μg AAE g^−1

VKLKIPLLIL [Cur-3]
FRAP (antioxidant activity ± SD) [13]: 1.04±0.00 μg AAE g^−1
ABTS radical-scavenging activity (antioxidant activity ± SD) [14]: 0.08±0.00 μg AAE g^−1
DPPH radical scavenging activity (antioxidant activity ± SD) [15]: 0.67±0.00 μg AAE g^−1

VLKKLLPLL [Cur-6]
FRAP (antioxidant activity ± SD) [13]: 1.05±0.00 μg AAE g^−1
ABTS radical-scavenging activity (antioxidant activity ± SD) [14]: 0.09±0.01 μg AAE g^−1
DPPH radical scavenging activity (antioxidant activity ± SD) [15]: 0.67±0.06 μg AAE g^−1
